Legend:
Assay type in all cases: cell-based
LAN-1 = assay: MTS cell viability assay, soluble SN-38 on LAN-1 neuroblastoma cells; details: LAN-1 cells, 4 hours exposure, viability 4 days later
Description: (§1) To determine whether the antitumor activity of the drug was conserved after the manufacturing process of the membranes, the present inventors co-incubated the membranes with neuroblastoma cell lines. In a previous experiment, the present inventors determined the extent to which SN-38 inhibits neuroblastoma. Such experiment was performed by exposing LAN-1, SK-N-BE(2)c and SK-N-AS cell lines to a fresh solution of SN-38 in RPMI, prepared from a stock solution of SN-38, 1 mg/mL in DMSO. Briefly, cells were plated in 96 well plates, 3000 cells per well, in RPMI medium. 24 hours later, the cells were exposed to SN-38 (concentration range 10-0.000001 μM). After 4 hours, the drug was withdrawn and fresh medium was added. The viability of the cell culture was quantified 4 days later, by using the MTS cell viability assay (Promega).
(§2) Each dot represents the mean (±SD) of 3-5 wells.

SK-N-BE(2)c = assay: MTS cell viability assay, soluble SN-38 on SK-N-BE(2)c neuroblastoma cells; details: SK-N-BE(2)c cells, 4 hours exposure, viability 4 days later
Description: as §1, §2

SK-N-AS = assay: MTS cell viability assay, soluble SN-38 on SK-N-AS neuroblastoma cells; details: 4 hours exposure, viability 4 days later
Description: as §1, §2

CCc1c2c(nc3ccc(O)cc13)-c1cc3c(c(=O)n1C2)COC(=O)[C@]3(O)CC [SN-38, 7-ethyl-10-hydroxycamptothecin]
IC50 (LAN-1): 0.01 µM
IC50 (SK-N-BE(2)c): 0.046 µM
IC50 (SK-N-AS): 0.19 µM

From patent US9561190B2, “Nonwoven membrane as a drug delivery system” (priority 2012, dated 2017)
